The supplement of paper PMC10307832

Key:
Experiment in all cases: relative viability (nuclei count vs DMSO), 5 days (fraction); higher = more cells survive
[1] = compound: C(C(=O)C(=O)O)Br [Bromopyruvate] + CCNC(=O)c1noc(-c2cc(C(C)C)c(O)cc2O)c1-c1ccc(CN2CCOCC2)cc1 [Luminespib] (partner 0.01 µM)
How it was run: (§1)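 Lung cancer cell lines, seeded in 1536-well plates, were treated the following day by pin tool with a single drug or with five library-drug doses (not always all listed) in √10 steps on top of a fixed anchor-drug dose. Cells were fixed and nuclei stained in one step after 5 days, and nuclei were counted. Relative viability is the nuclei count for treated wells divided by that for vehicle wells, reported as medians of duplicate plates.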

[2] = compound: C(C(=O)C(=O)O)Br [Bromopyruvate] + Nc1ncn([C@H]2C[C@H](O)[C@@H](CO)O2)c(=O)n1 [Decitabine] (partner 2 µM)
How it was run: as §1

[3] = compound: C(C(=O)C(=O)O)Br [Bromopyruvate] + N=C(N)NC(=N)NCCc1ccccc1 [Phenformin] (partner 250 µM)
How it was run: as §1

[4] = compound: CC(O)(CS(=O)(=O)c1ccc(F)cc1)C(=O)Nc1ccc(C#N)c(C(F)(F)F)c1 [Bicalutamide] + C[C@]1(O)C[C@@H](c2nc(-c3ccc4ccc(-c5ccccc5)nc4c3)c3c(N)nccn32)C1 [Linsitinib] (partner 1 µM)
How it was run: as §1

Cell Line	relative viability ([1]; first compound 1 µM)	relative viability ([1]; first compound 3.162 µM)	relative viability ([1]; first compound 10 µM)	relative viability ([1]; first compound 31.62 µM)	relative viability ([1]; first compound 100 µM)	relative viability ([2]; first compound 1 µM)	relative viability ([2]; first compound 3.162 µM)	relative viability ([2]; first compound 10 µM)	relative viability ([2]; first compound 31.62 µM)	relative viability ([2]; first compound 100 µM)	relative viability ([3]; first compound 1 µM)	relative viability ([3]; first compound 3.162 µM)	relative viability ([3]; first compound 10 µM)	relative viability ([3]; first compound 31.62 µM)	relative viability ([3]; first compound 100 µM)	relative viability ([4]; first compound 0.08 µM)	relative viability ([4]; first compound 0.253 µM)	relative viability ([4]; first compound 0.8 µM)	relative viability ([4]; first compound 2.53 µM)
NCI-H2342	0.756	0.775	0.661	0.57	0.531	0.746	0.682	0.676	0.695	0.629	0.574	0.645	0.613	0.479	0.488				
SK-MES-1	0.615	0.882	0.948	0.805	0.881	0.362	0.494	0.353	0.427	0.337	0.653	0.651	0.671	0.658	0.668	1.14	1.07	1.07	1.04
NCI-H1993	0.483	0.997	1.26	0.862	0.833	0.612	0.609	0.628	0.655	0.464	0.492	0.488	0.547	0.495	0.501		0.77	0.707	0.738
HCC-366						0.358	0.302	0.43	0.348	0.351	0.592	0.649	0.635	0.597	0.648	0.659	0.541	0.905	0.624
201T	1.04	1.04	1.08	1.05	1.12	0.882	0.835	0.849	0.85	0.928	0.504	0.489	0.481	0.453	0.455	1.04	1.02	1.07	1.04
HCC-827	0.684	0.607	1.01	0.886	0.619	0.356	0.295	0.305	0.331	0.266	0.438	0.43	0.395	0.389	0.413	0.945	0.896	0.993	0.964
NCI-H650	0.887	0.723	0.791	0.704	0.724	0.295	0.322	0.316	0.281	0.26	0.532	0.45	0.414	0.462	0.47	0.906	1.07	1.1	0.489
NCI-H2085	0.417	0.425	0.508	0.396	0.217	0.626	0.557	0.529	0.593	0.526	0.693	0.757	0.84	0.749	0.698	0.856	1.04	0.938	0.794
NCI-H596	1.05	1.02	1.14	0.951	0.282	1.64	1.11	0.974	1.05	1.03	0.694	0.724	0.501	0.695	0.822	1.09	0.968	1.25	1.14
SK-LU-1	0.213	0.195	0.208	0.194	0.215	0.704	0.606	0.56	0.597	0.623	0.52	0.533	0.581	0.506	0.494	1.24	1.29	1.17	0.817
A-427	0.763	1.04	0.918	0.971	0.817	0.581	0.567	0.612	0.631	0.568	0.417	0.353	0.25	0.335	0.261	1.16	1.15	1.21	1.18
NCI-H460	0.0351	0.0317	0.0297	0.0334	0.0363	0.484	0.459	0.679	0.46	0.468	0.512	0.556	0.658	0.494	0.508	0.854	0.556	0.986	0.672
NCI-H1703																0.815	0.79	0.833	0.495
NCI-H1792	0.664	0.487	0.53	0.573	0.423	0.57	0.614	0.45	0.498	0.555	0.227	0.345		0.386	0.252	0.585	0.412	0.549	0.48
Calu-6																0.972	0.999	1.12	0.98
SW 1573	0.214	0.212	0.562	0.135	0.0625	0.498	0.574	0.534	0.304	0.0598	0.387	0.446	0.385	0.34	0.0639	0.834	0.647	0.887	0.647
RERF-LC-KJ	1.28	1.32	1.2	1.21	1.23	0.738	0.745	0.791	0.794	0.72	0.4	0.438	0.514	0.429	0.416	0.868	0.85	0.94	0.904
EMC-BAC-2	0.993	1.24	1.29	1.22	1.22	0.918	1.04	1		0.921	0.517	0.519	0.637	0.548	0.571	0.854	0.796	0.803	0.756
LK-2	0.166	0.182	0.158	0.161	0.199	0.277	0.232	0.287	0.325	0.272	0.411	0.673	0.432	0.57	0.496	0.715	0.349	0.64	0.657
NCI-H2228	0.182	0.144	0.148	0.145	0.193						0.341	0.418	0.178	0.285	0.334	0.627	0.573	0.824	0.957
NCI-H322M	0.821	0.977	0.891	0.879	0.747	0.705	0.717	0.747	0.758	0.669	0.727	0.756	0.809	0.796	0.784	0.94	0.976	1.02	1.04

Cell Line	relative viability ([1]; first compound 1 µM)	relative viability ([1]; first compound 3.162 µM)	relative viability ([1]; first compound 10 µM)	relative viability ([1]; first compound 31.62 µM)	relative viability ([1]; first compound 100 µM)	relative viability ([2]; first compound 1 µM)	relative viability ([2]; first compound 3.162 µM)	relative viability ([2]; first compound 10 µM)	relative viability ([2]; first compound 31.62 µM)	relative viability ([2]; first compound 100 µM)	relative viability ([3]; first compound 1 µM)	relative viability ([3]; first compound 3.162 µM)	relative viability ([3]; first compound 10 µM)	relative viability ([3]; first compound 31.62 µM)	relative viability ([3]; first compound 100 µM)	relative viability ([4]; first compound 0.08 µM)	relative viability ([4]; first compound 0.253 µM)	relative viability ([4]; first compound 0.8 µM)	relative viability ([4]; first compound 2.53 µM)
NCI-H1975	0.227	0.286	0.084	0.255	0.253	0.396	0.402	0.341	0.394	0.413	0.431	0.443	0.439	0.407	0.367	0.947	0.917	1.1	0.656
NCI-H1944	0.716	0.785	0.967	0.7	0.734	0.419	0.423	0.503	0.39	0.44	0.218	0.225	0.217	0.206	0.214	1.07	1.15	1.27	1.14
LU99A	0.301	0.313	0.273	0.248	0.213	0.894	0.903	0.979	0.949	0.95	0.751	0.753	0.89	0.921	0.794	0.512	0.486	0.566	0.47
NCI-H2405	0.719	0.643	0.738	0.741	0.675	0.696	0.732	0.854		0.665	0.403	0.432	0.421	0.354	0.388	0.897	0.873	1.06	0.901
NCI-H2023	0.77	0.883	0.789	0.65	0.901	0.221	0.205	0.29	0.229	0.194	0.39	0.415	0.478	0.419	0.429	0.721	0.723	0.597	0.715
HCC-15	0.363	0.416	0.509	0.328	0.25	0.614	0.625	0.615	0.659	0.568	0.472	0.5	0.521	0.466	0.456	0.826	0.837	0.932	0.969
HCC-44	1.09	1.12	1.54	0.968	0.948	0.987	0.926	0.895	0.943	0.908	0.346	0.191	0.185	0.184	0.16	0.67	0.664	0.691	0.788
HCC-78						0.644	0.708	0.723	0.63	0.655	0.644	0.719	0.759	0.516	0.657	0.585	0.462	0.599	0.445
NCI-H1299																1.04	1.03	1.17	1.01
NCI-H1650	0.19	0.224	0.186	0.177	0.182	0.448	0.393	0.462	0.454	0.266	0.414	0.429	0.475	0.449	0.291				
ChaGo-K-1	0.565	0.697	0.646	0.705	0.417	0.554	0.525	0.609	0.529	0.486	0.581	0.531	0.511	0.473	0.411				
NCI-H1648						0.465	0.572	0.454	0.511	0.491									
NCI-H1563	0.482	0.559	0.489	0.466	0.532						0.621	0.748	0.643	0.673	0.657	1.28	1.2	1.12	1.07
A549						0.225	0.271	0.36	0.308	0.266	0.17	0.16	0.0997	0.234	0.22	0.567	0.531	0.696	0.527
NCI-H522	1.07	1.16	1.11	1.28	1.29	0.604	0.705	0.619	0.699	0.603	0.599	0.654	0.641	0.679	0.574				
NCI-H2170	0.75	0.979	0.689	0.574	0.583	0.471	0.464	0.424	0.44	0.438	0.414	0.487	0.435	0.41	0.379				
NCI-H1623	0.545	0.523	0.747	0.489	0.504						0.545	0.654	0.635	0.588	0.625				
SW 900	0.16	0.173	0.197	0.166	0.21	0.451	0.485	0.462	0.419	0.449	0.645	0.55	0.755	0.706	0.627				
IA-LM																0.823	0.641	0.616	0.646
CAL-12T	0.375	0.421	0.606	0.285	0.357						0.556	0.491	0.667	0.58	0.529	0.69	0.777	1.04	0.814
EBC-1																0.874	0.874	1.05	0.858
